Reference: US11380440B1, “Marker screening and signal detection” (Cerner Innovation, Inc., priority 2011, dated 2022)

Test system: patients admitted to hospital with AMI

Compound	in-house mortality percentage (count of deaths from the number receiving exposure) (Table 500 column 520, cohort of 6,699 AMI inpatients, 5.7% of the cohort died)	actual number of deaths (386 exposed patients of the 6,699 cohort (FIG. 4A column 415))	expected number of deaths (Monte Carlo simulation, 2,000 burn-in and 50,000 iterations (FIG. 4A column 420))
CC(C)c1c(C(=O)Nc2ccccc2)c(-c2ccccc2)c(-c2ccc(F)cc2)n1CC[C@@H](O)C[C@@H](O)CC(=O)O [atorvastatin]	3.4%	–	–
O=C(O)c1cn(C2CC2)c2cc(N3CCNCC3)c(F)cc2c1=O [Ciprofloxacin]	–	129	28.3
